Biological target: T1, ATP-binding cassette subfamily G member 2 (ABCG2) (Homo sapiens, UniProt Q9UNQ0)
T1 sequence (Q9UNQ0 1-655): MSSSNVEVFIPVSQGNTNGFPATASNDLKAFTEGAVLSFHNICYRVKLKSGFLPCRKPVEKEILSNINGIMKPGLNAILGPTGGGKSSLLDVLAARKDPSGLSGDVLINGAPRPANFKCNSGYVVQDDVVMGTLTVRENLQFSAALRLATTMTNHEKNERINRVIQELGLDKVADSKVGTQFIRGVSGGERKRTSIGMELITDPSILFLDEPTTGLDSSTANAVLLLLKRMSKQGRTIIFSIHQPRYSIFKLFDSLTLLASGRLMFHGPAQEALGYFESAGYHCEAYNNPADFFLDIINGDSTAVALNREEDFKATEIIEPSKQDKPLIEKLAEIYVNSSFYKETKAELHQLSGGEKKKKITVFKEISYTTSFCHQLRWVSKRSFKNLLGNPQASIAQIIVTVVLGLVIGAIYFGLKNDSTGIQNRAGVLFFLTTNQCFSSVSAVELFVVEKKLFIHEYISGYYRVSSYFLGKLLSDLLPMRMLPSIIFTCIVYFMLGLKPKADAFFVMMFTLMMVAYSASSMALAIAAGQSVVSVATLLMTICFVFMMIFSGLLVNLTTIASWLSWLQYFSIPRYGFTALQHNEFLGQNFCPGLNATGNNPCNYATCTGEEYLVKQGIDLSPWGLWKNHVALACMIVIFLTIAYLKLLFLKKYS
Assay: competition of […]-IAAP photoaffinity labeling in crude membranes

- competition of [125I]-IAAP photoaffinity labeling in crude membranes; also vanad: ~ 5 μmol/L
SMILES: C=CC(=O)Nc1cccc(Nc2nc(Nc3ccc(N4CCN(C(C)=O)CC4)cc3OC)ncc2C(F)(F)F)c1 [rociletinib]
